Source: paper PMC10141139 (2023)

Experiments:
[1] = test system: miniTERRA (RNA, G4) UUAGGGUUAGGGUUAGGGUUAGGGUUA; experiment: ThT fluorescence light-up; settings: pH 7.4, 34 °C, 5 µM RNA, 5 µM ThT
[2] = test system: Negative control (RNA, single strand) UUACCCUUACCCUUACCCUUACCCUUA; experiment: ThT fluorescence light-up; settings: pH 7.4, 34 °C, 5 µM RNA, 5 µM ThT highest tested
[3] = test system: miniTERRA (RNA, G4) UUAGGGUUAGGGUUAGGGUUAGGGUUA; experiment: fluorescent indicator displacement (ThT); settings: pH 7.4, 34 °C, 5 µM RNA, 5 µM ThT displaced

Compound	binding ([1]; K+ (100 mM phosphate))	binding ([1]; Na+ (100 mM phosphate))	binding ([2]; K+ (100 mM phosphate))	binding ([2]; Na+ (100 mM phosphate))	IC50 ([3]; K+ (100 mM phosphate)) [µM]	IC50 ([3]; Na+ (100 mM phosphate)) [µM]
Cc1ccc2c(c1)sc(-c1ccc(N(C)C)cc1)[n+]2C	yes	yes	no	no	–	–
NCCOc1cc(C(=O)Nc2cc(OCCN)c3ccccc3n2)nc(C(=O)Nc2cc(OCCN)c3ccccc3n2)c1	–	–	–	–	17.23 ± 0.28	19.29 ± 0.25
